# Several values for one entry are separate records, joined by “and”; a condition that tells them apart may be missing. Equal entries are not always repeated.
# Assays:
# [1] = tested on: Pseudomonas aeruginosa strain H1001; assay: Assay for the cleaved (free, soluble) peptides from cellulose support, luminescence killing assay; format: cell-based; parameters: key: 1: Peptides showing stronger killing than Bac2A at a 4 to 8-fold higher dilution; Peptides showing stronger killing compared to that of Bac2A at a 4-fold higher dilution; 3: Peptides similar to Bac2A; 4: Peptides similar to Bac2A at the highest concentration but demonstrating weaker killing at a 2-fold dilution; 5: Peptides giving very weak or no killing at a 2-fold dilution; 6: Peptides with weak killing activity at the highest concentration; conditions: free (cleaved) peptides, killing relative to Bac2A
# Method: Assay for the cleaved peptides from cellulose support. The peptides were cleaved from the dried membrane in an ammonia atmosphere overnight, resulting in free peptides with an amidated C-terminus. The free peptides contained two β-alanines at the C-terminus, in addition to being amidated due to the linker between the cellulose membrane and the peptide sequence. The peptide spots were punched out and transferred in a 96-well microtiter plate. Serial dilutions were carried out from the membrane spots. Four rows were filled with four controls including two with Bac2A and two with of an unrelated peptide. The other eight rows were used for serial dilution steps of the peptide variants. An overnight culture of Pseudomonas aeruginosa strain H1001 was diluted 1:500 using either LB media or 100 mM Tris buffer pH 7.3, 20 mM glucose and was added to the wells (100 μl/well) containing the peptide spots. In all other wells 50 μl were added. The microtiter plate was incubated for 30 min at 37° C. to release the peptides from the membrane. Subsequently, a dilution series were performed and the plate was incubated at 37° C. The luminescence produced by the ATP dependent luciferase system were detected in a time dependent manner using a Tecan Spectra Fluor plus.
# (§1) Strains. For the killing assay a mini-Tn5-lux mutant in Pseudomonas aeruginosa H103 was used. The strain is called H1001 and contains a fliC::luxCDABE transcriptional fusion resulting in constitutive expression of luciferase. The bacterial strains used for the antimicrobial activity assays included Escherichia coli UB1005 (F-, nalA37, metB1), a wild-type Salmonella enterica ssp. Typhimurium (S. Typhimurium), wild-type Pseudomonas aeruginosa PAO1 strain H103, Enterococcus faecalis ATCC29212, Staphylococcus aureus ATCC25923, and a clinical isolate of Staphylococcus epidermidis obtained from Dr. D. Speert (Department of Medicine, University of British Columbia). Antifungal activity was tested using a lab isolate of Candida albicans obtained from Dr. B. Dill (Department of Microbiology and Immunology, University of British Columbia).
# Peptide synthesis on cellulose is a very effective and inexpensive way to investigate many different peptide variants for one particular activity. However, one of the problems of this technique is the low peptide density synthesized on the membrane, about 280 nmol per cm2. An average peptide spot used for the experiments presented is about 0.3 cm2. Therefore, an assay had to be developed that was sensitive enough to show activity with this amount of peptides. P. aeruginosa H1001 has a reporter system (e.g., a luciferase gene cassette) incorporated into the bacterial chromosome in the fliC gene (involved in flagellar biosynthesis) that is constitutively expressed. It will thus produce light if ATP is present. When this strain is killed, e.g. by peptides, the amount of light produced will decrease due to a decrease in ATP levels in the killed cells. This action can thus be monitored by detecting luminescence in a microtiter plate luminescence reader over time. The volume and amount of cells per well were optimized for this assay. After screening, the killing action was monitored with small amounts of the parent peptide Bac2A (2 μg/ml of free peptide).
# Forty-nine scrambled peptides (Bac002-Bac050) were synthesized on the cellulose support and then cleaved by ammonia gas resulting in free peptides with an amidated C-terminus including the linker. The peptide spots were transferred to a 96-well microtiter plate and incubated for 30 min to dissociate the peptides from the cellulose. After serial dilution and addition of strain H1001, luminescence was recorded in a time dependent manner (FIG. 1). All 50 scrambled peptides were compared to Bac2A ([…]-NH2; SEQ ID NO: 1) by this assay (see Table 2). […] Further since all scrambled peptides had some activity, a sequence-specific interaction of the peptides with a receptor or target could be excluded.
# [2] = tested on: Pseudomonas aeruginosa strain H1001 fliC::luxCDABE; assay: Luminescence-based assay for the non-cleaved (bound) peptides on cellulose membranes; format: cell-based; conditions: for Luminescence at the given time in minutes: 0 / Luminescence at the given time in minutes: 20 / Luminescence at the given time in minutes: 40 / Luminescence at the given time in minutes: 60 / Luminescence at the given time in minutes: 80 / Luminescence at the given time in minutes: 100 / Luminescence at the given time in minutes: 120 / Luminescence at the given time in minutes: 180 / Luminescence at the given time in minutes: 240: cellulose-bound peptide; for Luminescence at the given time in minutes: 0: 0 min; for Luminescence at the given time in minutes: 20: 20 min; for Luminescence at the given time in minutes: 40: 40 min; for Luminescence at the given time in minutes: 60: 60 min; for Luminescence at the given time in minutes: 80: 80 min; for Luminescence at the given time in minutes: 100: 100 min; for Luminescence at the given time in minutes: 120: 120 min; for Luminescence at the given time in minutes: 180: 180 min; for Luminescence at the given time in minutes: 240: 240 min; for Activity Class bound: uncleaved cellulose-bound peptides; for ability to inhibit light production (luminescence): cellulose bound peptide spots, three hours at 37° C., FIG. 2
# Method: Luminescence-based MIC assay for the non-cleaved peptides on cellulose membranes. The peptide spots were punched out and transferred to a 96 well microtiter plate with a clear polystyrene bottom and opaque white polypropylene sides (PerkinElmer, Boston, USA). The spots were washed two times with 100% ethanol for 5 min and afterwards equilibrated five times with 100 mM Tris buffer pH 7.3 for 5 min. An overnight culture of Pseudomonas aeruginosa strain H1001 fliC::luxCDABE was diluted 1:50 in new MH medium and incubated at 37° C. to an OD600 of 0.35. This bacterial culture was diluted 1:25 into 10 mM Tris-HCl buffer, pH 7.3 containing 20 mM glucose. Fifty μl of this culture was added to all wells of the microtiter plate and incubated at 37° C. The luminescence of the strain produced by the ATP-dependent luciferase system was detected in a time dependent manner using a Tecan Spectra Fluor plus (Tecan, Austria). At the end of the experiment, the membranes were cleaned by washing the spots two times with 100% ethanol for five minutes. After removing the ethanol the membrane was air-dried.
# as §1
# The same set of peptides, as well as the reversed sequence of Bac2A-R ([…]; SEQ ID NO: 2166), were synthesized on cellulose and left uncleaved. The production of light was initially compared in wells containing spots of Bac2A, Bac2A-R (with the reversed sequence of Bac2A), the unrelated negative-control peptide, or, as additional controls, only cellulose, or only bacteria (FIG. 2).
# As a control, the negative control (unrelated) peptide Bac429 and parent peptide Bac2A (=Bac001) were used in several different wells of the microtiter plate. Luminescence (relative light units; RLU) was measured at 14 different time points, 9 of which are shown. To permit comparison of the data with the free peptide data set, the result for each peptide was classified into six different groups, like the data set with the free peptides (Table 2). […] For the soluble peptides the following classes were established: […]
Sequence,Activity Class Soluble [1],Luminescence at the given time in minutes: 0 [2],Luminescence at the given time in minutes: 20 [2],Luminescence at the given time in minutes: 40 [2],Luminescence at the given time in minutes: 60 [2],Luminescence at the given time in minutes: 80 [2],Luminescence at the given time in minutes: 100 [2],Luminescence at the given time in minutes: 120 [2],Luminescence at the given time in minutes: 180 [2],Luminescence at the given time in minutes: 240 [2] [RLU],Activity Class bound [2],ability to inhibit light production (luminescence) [2]
AAVRRRVRLVII [Bac010],1,4380 RLU,6719 RLU,4170 RLU,1628 RLU,562 RLU,129 RLU,121 RLU,99 RLU,56,3 (Peptides similar to Bac2A resulting in lux values of less than 500 after 240 min.),–
ARAILIRVVRRV [Bac025],3,4354 RLU,6728 RLU,3660 RLU,1127 RLU,343 RLU,113 RLU,115 RLU,114 RLU,80,3 (Peptides similar to Bac2A resulting in lux values of less than 500 after 240 min.),–
ARIARRVRILVV [Bac021],4,5470 RLU,7247 RLU,4581 RLU,1967 RLU,683 RLU,278 RLU,196 RLU,129 RLU,128,3 (Peptides similar to Bac2A resulting in lux values of less than 500 after 240 min.),–
ARRARIRILVVV [Bac032],4,4649 RLU,6342 RLU,4584 RLU,2088 RLU,595 RLU,148 RLU,107 RLU,54 RLU,33,3 (Peptides similar to Bac2A resulting in lux values of less than 500 after 240 min.),–
"GATPEDLNQKLS [Bac429, negative control (unrelated) peptide, reference compound]",–,4295 RLU and 4593 RLU and 4337 RLU and 4761 RLU and 4537 RLU,7478 RLU and 7525 RLU and 7118 RLU and 7536 RLU and 7275 RLU,6031 RLU and 6900 RLU and 6593 RLU and 6318 RLU and 6459 RLU,5770 RLU and 6732 RLU and 6716 RLU and 6102 RLU and 6149 RLU,5449 RLU and 6701 RLU and 6273 RLU and 5996 RLU and 6092 RLU,4779 RLU and 6812 RLU and 6453 RLU and 6086 RLU and 5799 RLU,4438 RLU and 6872 RLU and 6210 RLU and 5899 RLU and 5611 RLU,3939 RLU and 7674 RLU and 6656 RLU and 6384 RLU and 5656 RLU,–,–,no activity in decreasing luminescence
IILAVRAVRRVR [Bac029],–,4538 RLU,6664 RLU,5062 RLU,3963 RLU,2745 RLU,1799 RLU,1279 RLU,1012 RLU,942,4 (Peptides reducing luminescence (lux) values to between 500 to 1499 after 240 min.),–
IVVRRRRAALVI [Bac030],–,4618 RLU,7325 RLU,5921 RLU,5326 RLU,4981 RLU,4418 RLU,4087 RLU,3861 RLU,3679,6 (Peptides having residual luminescence (lux) values greater than 3000 after 240 min.),–
RAVRIVVIRALR [Bac2A-R],–,–,–,–,–,–,–,–,–,–,–,only a slightly decreased ability to inhibit light production
RRRAIVRVVAIL [Bac023],–,3958 RLU,7783 RLU,5656 RLU,3751 RLU,1827 RLU,761 RLU,329 RLU,123 RLU,79,3 (Peptides similar to Bac2A resulting in lux values of less than 500 after 240 min.),–
RVLIARVVRAIR [Bac027],–,4437 RLU,6695 RLU,4991 RLU,4421 RLU,4011 RLU,3545 RLU,3100 RLU,3182 RLU,3513,6 (Peptides having residual luminescence (lux) values greater than 3000 after 240 min.),–
